In this test the target is PRPK/TPRKB complex (also PRPK/PRPKB; PRPK aka TP53RK) (Homo sapiens, UniProt Q96S44). Nature of the test: ITC. In kind it is binding.

This is an account of results in publication doi:10.1101/2021.11.30.469594v1 (biorxiv, 2021).

SMILES strings stand for the structures. Like-named read-outs stand apart in the source and are kept apart here.

PRPK/TPRKB complex (also PRPK/PRPKB; PRPK aka TP53RK), sequence (Q96S44 whole entry, other chains not shown): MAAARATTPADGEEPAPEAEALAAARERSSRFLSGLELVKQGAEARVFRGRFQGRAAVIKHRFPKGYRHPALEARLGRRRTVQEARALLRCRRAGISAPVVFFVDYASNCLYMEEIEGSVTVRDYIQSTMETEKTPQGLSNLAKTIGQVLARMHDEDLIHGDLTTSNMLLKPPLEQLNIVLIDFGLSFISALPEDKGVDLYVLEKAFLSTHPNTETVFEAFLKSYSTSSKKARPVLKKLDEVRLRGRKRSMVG

In the case of `Nc1ccc2c(c1)C(=O)N(C1CCC(=O)NC1=O)C2=O` (centres unmarked) [Compound2, 5-amino-2-(2,6-dioxopiperidin-3-yl)isoindoline-1,3-dione], binding was put at a Kd of 6.1 ± 0.5 µM. In the case of `C[C@@]1(N2C(=O)c3cccc(O)c3C2=O)CCC(=O)NC1=O` [DB-A5, (R)-4-hydroxy-2-(3-methyl-2,6-dioxopiperidin-3-yl)isoindoline-1,3-dione], binding (pH […] °C, […] DMSO, crystal structure solved here, ATP site) was characterised by a dissociation constant (Kd) of 1.8 ± 0.4 µM.

Consider `COc1cccc2c1C(=O)N([C@]1(C)CCC(=O)NC1=O)C2=O` [DB-A5-OMe, (R)-4-methoxy-2-(3-methyl-2,6-dioxopiperidin-3-yl)isoindoline-1,3-dione], for which the Kd was > 1000 µM.

The compound `C[C@]1(N2C(=O)c3cccc(O)c3C2=O)CCC(=O)NC1=O` [DB-B5, (S)-4-hydroxy-2-(3-methyl-2,6-dioxopiperidin-3-yl)isoindoline-1,3-dione] gave a Kd (pH […] °C, […] DMSO) of 27 µM. For the compound `O=C1CCC(N2C(=O)c3cccc(O)c3C2=O)C(=O)N1` (centres unmarked) [TXM-01-027-1, 2-(2,6-dioxopiperidin-3-yl)-4-hydroxyisoindoline-1,3-dione], the Kd worked out at 2.2 µM.

Broadly, the Kd is the concentration at which binding is half-saturated.
